Structures are written as SMILES.

This assay deals with T1, Androgen Receptor (AR) (Homo sapiens, UniProt P10275, T878A).
T1 construct: endogenous in cells; host or cells: LNCaP
T1 sequence (P10275 1-920 T878A): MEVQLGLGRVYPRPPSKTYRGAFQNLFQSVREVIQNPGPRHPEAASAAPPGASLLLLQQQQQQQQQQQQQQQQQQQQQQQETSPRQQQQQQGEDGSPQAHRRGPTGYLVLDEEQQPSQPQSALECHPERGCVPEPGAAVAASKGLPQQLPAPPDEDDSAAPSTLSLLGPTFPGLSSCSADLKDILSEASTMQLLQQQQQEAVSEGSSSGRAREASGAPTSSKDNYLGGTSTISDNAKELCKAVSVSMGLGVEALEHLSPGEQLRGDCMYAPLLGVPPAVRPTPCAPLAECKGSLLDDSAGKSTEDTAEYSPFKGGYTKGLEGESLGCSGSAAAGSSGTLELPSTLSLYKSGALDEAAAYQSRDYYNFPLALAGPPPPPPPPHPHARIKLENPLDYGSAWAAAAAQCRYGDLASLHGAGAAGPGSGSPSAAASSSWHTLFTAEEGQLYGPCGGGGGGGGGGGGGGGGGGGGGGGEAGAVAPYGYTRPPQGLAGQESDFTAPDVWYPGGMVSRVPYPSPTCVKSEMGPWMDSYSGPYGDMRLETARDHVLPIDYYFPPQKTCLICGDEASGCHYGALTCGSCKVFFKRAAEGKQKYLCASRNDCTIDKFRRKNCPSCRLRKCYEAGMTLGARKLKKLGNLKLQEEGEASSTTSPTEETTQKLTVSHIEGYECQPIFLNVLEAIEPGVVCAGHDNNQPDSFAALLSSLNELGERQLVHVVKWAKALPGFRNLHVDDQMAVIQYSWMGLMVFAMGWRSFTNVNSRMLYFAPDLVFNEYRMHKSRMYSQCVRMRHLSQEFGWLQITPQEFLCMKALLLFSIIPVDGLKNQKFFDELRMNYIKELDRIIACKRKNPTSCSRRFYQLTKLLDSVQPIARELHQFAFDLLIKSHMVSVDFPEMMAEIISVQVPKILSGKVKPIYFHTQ
Briefly: Measurement of AR protein degradation in LNCaP cells by Western blotting. It is filed as cell-based. The conditions noted are these: LNCaP, 20 h, read-out: AR degradation in LNCaP cells (%). The procedure:
The amount of AR protein present in LNCaP or VCaP cells was measured after treating them with the synthesized compound. The amount of AR protein was measured using Western blotting. The protocol for the experiments using LNCaP or VCaP cells was as follows.
[Culture] LNCaP cells were resuspended in RPMI1640 medium + HEPES (Hyclone, SH30255.01), 10% FBS (Hyclone, SV30207.02), and 1% Penicillin-streptomycin (Welgene, LS 202-02). 3 x 10^5 cells/mL were seeded in 12-well plates (1 mL per well) and cultured for 3 days. VCaP cells were resuspended in IMDM MEDIUM (Hyclone, SH30228.01), 20% FBS (Hyclone, SV30207.02), and 1% Penicillin-streptomycin (Welgene, LS 202-02), seeded at 9 x 10^5/mL in 1 mL per 12-well plate, and cultured for 3 days.
[Compound Treatment] 10 µL of 100x stock (e.g., 0.1, 1, 10 µM) compound solution at the final compound treatment concentration (e.g., 0.001, 0.01, 0.1 µM) was added to each well in 1 mL media, and cells were harvested after 20 hours. For DC50 measurement, 100x stock (0.01, 0.1, 1, 10, 100, 1000 µM) compound solutions at the final compound treatment concentration (0.0001, 0.001, 0.01, 0.1, 1, 10 µM) were used.
[Cell lysis] The cell pellet was suspended using 1% SDS lysis buffer (50 mM Tris, 1 mM EDTA, 1% SDS, pH 8.0, 0.5 mM PMSF, 1x Protease/Phosphatase inhibitor Cocktail (Cell Signaling Technology, 5872S)), and sonication (70% AMP, 10 cycles (30 sec ON/59 sec OFF)) was performed. After centrifugation at 4°C and 20,000 g for 20 minutes, the cell lysate was obtained and transferred to a new tube.
[Protein Quantification] A BCA protein assay (SMART™ BCA Protein Assay Kit, iNtRON Biotechnology, 21071) was performed using a 96-well microplate. 5 µL of cell lysate and 5 µL of 1% SDS lysis buffer were added to each well of the 96-well plate, followed by an additional 200 µL of BCA reagent (Reagent A: Reagent B = 50:1). The wells were incubated at 37°C for 30 minutes and cooled to room temperature for 10 minutes. After shaking for 10 seconds, the absorbance was measured at a wavelength of 562 nm. The unknown protein concentration was determined using a BSA standard curve (0, 0.125, 0.25, 0.5, 1, 2 mg/mL). Western blotting samples were prepared by mixing cell lysate, 1% SDS lysis buffer, 4x NuPAGE™ LDS Sample buffer (Invitrogen, NP0008), and 10X NuPAGE™ Sample Reducing Agent (Invitrogen, NP0009) and boiling at 70°C for 10 minutes.
[Electrophoresis] 10 µg of protein sample was loaded into each well of a NuPAGE™ 4 to 12%, Bis-Tris, 1.0 mm Mini Protein Gel, 15-well, 17-well, or 26-well (Invitrogen, NP0323BOX, NP0329BOX, or WG1403BOX) and electrophoresed for 40 minutes using NuPAGE™MES SDS Running Buffer (Invitrogen, NP0002) at 200 V (constant V).
[Transfer] Transfer was performed for 15 or 18 minutes using the electrophoresed gel and the Trans-Blot® Turbo™ Transfer Starter System (Bio-RAD, #17001918, Mini Nitrocellulose) at 1.3 A (constant A) and 25 V (limit V). To confirm protein transfer, 15 mL of Ponceau S solution (Sigma, P7170-1L) was used to stain for 1 minute, and then washed to check the degree of transfer.
[Blocking] The membrane for AR and GAPDH detection was blocked with 5% skim milk/0.2% TBST (Skim milk: BD, 232100/ 20X TBS: Biosesang, TR2008-100-00/ 10% Tween 20 Solution: Bio-RAD, #161-0781) for 45 minutes.
[Antibodies and Detection] Primary AR antibody (Androgen Receptor: CST, 5153S) was mixed with 5% skim milk/0.2% TBST at a ratio of 1:1,000 and reacted at room temperature for 3 hours or at 4°C overnight. Primary GAPDH antibody (CST, 2118S) was mixed with 5% skim milk/0.2% TBST at a ratio of 1:2,000 and reacted at room temperature for 3 hours or at 4°C overnight. Afterwards, TBST (0.2% Tween 20) was used for washing three times every 5 minutes. Secondary antibody to AR antibody, Anti-rabbit IgG, HRP-linked Antibody (CST, 7074S), was mixed with 5% skim milk/0.2% TBST at a ratio of 1:5,000 and reacted at room temperature for 45 minutes. […]

As for `N#Cc1ccc(N2CCC(C(=O)Nc3ccc(OC4CCN(CC5CCN(c6ccc(NC7CCC(=O)NC7=O)cc6F)CC5)CC4)cn3)CC2)cc1C(F)(F)F` (stereo not shown) [Example 1, 1-(4-cyano-3-(trifluoromethyl)phenyl)-N-(5-((1-((1-(4-((2,6-dioxopiperidin-3-yl)amino)-2-fluorophenyl)piperidin-4-yl)methyl)piperidin-4-yl)oxy)pyridin-2-yl)piperidine-4-carboxamide], the Dmax at 0.01 µM was 84% and the Dmax at 0.1 µM is 99%.

Turning to `N#Cc1ccc(N2CCC(C(=O)Nc3ccc(OC4CCN(CC5CCN(c6ccc(NC7CCC(=O)NC7=O)cc6Cl)CC5)CC4)cn3)CC2)cc1C(F)(F)F` (stereo not shown) [Example 17, N-(5-((1-((1-(2-chloro-4-((2,6-dioxopiperidin-3-yl)amino)phenyl)piperidin-4-yl)methyl)piperidin-4-yl)oxy)pyridin-2-yl)-1-(4-cyano-3-(trifluoromethyl)phenyl)piperidine-4-carboxamide], the Dmax at 0.01 µM worked out at 77% and the Dmax at 0.1 µM worked out at 99%.

The record behind these values is patent EP4772505A1, “COMPOUND FOR DEGRADING ANDROGEN RECEPTOR AND MEDICAL USE THEREOF” (Ubix Therapeutics, Inc., priority 2023, dated 2025).
